Measured values reported in ChEMBL document CHEMBL1148604 (J Med Chem, 2006).
pIC50: −log10 of the molar value. In brackets after ≈: the same amount, converted by molar mass.

Columns and labels:
[1] = target: T1, 3-oxoacyl-[acyl-carrier-protein] synthase 2 (Mycobacterium tuberculosis, UniProt P9WQD7); experiment: Inhibitory activity against KasB from Mycobacterium tuberculosis H37Rv
T1 sequence (P9WQD7 whole entry): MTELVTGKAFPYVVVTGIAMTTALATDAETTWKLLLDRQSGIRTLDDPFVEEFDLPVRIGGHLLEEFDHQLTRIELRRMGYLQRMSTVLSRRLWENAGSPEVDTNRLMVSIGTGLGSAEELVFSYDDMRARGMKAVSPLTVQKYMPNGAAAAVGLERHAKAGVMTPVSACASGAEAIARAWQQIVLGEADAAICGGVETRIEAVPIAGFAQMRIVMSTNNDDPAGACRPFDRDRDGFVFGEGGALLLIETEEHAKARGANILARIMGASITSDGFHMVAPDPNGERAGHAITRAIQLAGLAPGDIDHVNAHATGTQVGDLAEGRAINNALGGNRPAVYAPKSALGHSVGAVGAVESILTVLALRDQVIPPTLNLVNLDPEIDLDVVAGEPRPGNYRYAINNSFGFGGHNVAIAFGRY

wild-type apo-KasA = wild-type apo-KasA (Mycobacterium tuberculosis, UniProt P9WQD9); experiment: Inhibitory activity against KasA from Mycobacterium tuberculosis H37Rv
[2] = system: Mycobacterium tuberculosis; experiment: Inhibitory activity against Mycobacterium tuberculosis H37Rv; assay type: functional
[3] = target: T2, 3-oxoacyl-[acyl-carrier-protein] synthase 1 (Escherichia coli K-12, UniProt P0A953); experiment: Inhibitory activity against FabB from Escherichia coli ANSI
T2 sequence (P0A953 whole entry): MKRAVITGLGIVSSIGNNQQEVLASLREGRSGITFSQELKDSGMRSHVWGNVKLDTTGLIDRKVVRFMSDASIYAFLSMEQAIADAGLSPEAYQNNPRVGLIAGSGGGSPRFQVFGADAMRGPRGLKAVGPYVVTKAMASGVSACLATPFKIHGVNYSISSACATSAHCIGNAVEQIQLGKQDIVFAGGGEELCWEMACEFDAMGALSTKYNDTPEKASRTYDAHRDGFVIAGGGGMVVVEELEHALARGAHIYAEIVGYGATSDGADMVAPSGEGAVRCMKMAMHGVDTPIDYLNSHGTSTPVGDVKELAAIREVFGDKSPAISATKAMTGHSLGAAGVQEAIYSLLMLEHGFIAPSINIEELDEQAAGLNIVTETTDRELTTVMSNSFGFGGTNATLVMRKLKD

Escherichia coli = experiment: Inhibitory activity against Escherichia coli ANSI; assay type: functional
[4] = target: T3, 3-oxoacyl-[acyl-carrier-protein] synthase 3 (Escherichia coli, UniProt C3TDZ2); experiment: Inhibitory activity against FabH from Escherichia coli ANSI
T3 sequence (C3TDZ2 whole entry): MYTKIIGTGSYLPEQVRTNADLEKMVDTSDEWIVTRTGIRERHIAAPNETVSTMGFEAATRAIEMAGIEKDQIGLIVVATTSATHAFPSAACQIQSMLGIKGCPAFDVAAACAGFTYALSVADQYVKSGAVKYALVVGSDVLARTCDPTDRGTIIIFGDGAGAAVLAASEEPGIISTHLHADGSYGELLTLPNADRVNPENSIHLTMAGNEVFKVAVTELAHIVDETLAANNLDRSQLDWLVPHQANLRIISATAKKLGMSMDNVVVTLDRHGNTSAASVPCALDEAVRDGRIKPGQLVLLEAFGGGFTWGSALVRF

[5] = target: T4, Mycobacterial beta-ketoacyl-[acyl-carrier-protein] synthase III (Mycobacterium tuberculosis, UniProt P9WNG3); experiment: Inhibitory activity against FabH from Mycobacterium tuberculosis H37Rv
T4 sequence (P9WNG3 whole entry): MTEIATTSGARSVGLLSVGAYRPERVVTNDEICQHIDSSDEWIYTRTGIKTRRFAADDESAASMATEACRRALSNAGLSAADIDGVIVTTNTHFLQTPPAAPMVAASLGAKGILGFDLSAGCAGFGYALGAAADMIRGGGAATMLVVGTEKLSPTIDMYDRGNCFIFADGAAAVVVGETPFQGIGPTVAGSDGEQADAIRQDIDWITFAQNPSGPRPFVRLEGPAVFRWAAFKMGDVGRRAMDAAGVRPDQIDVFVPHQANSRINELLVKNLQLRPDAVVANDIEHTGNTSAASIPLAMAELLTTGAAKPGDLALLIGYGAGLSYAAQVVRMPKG

Chain of wild-type apo-KasA (P9WQD9 whole entry, looked up): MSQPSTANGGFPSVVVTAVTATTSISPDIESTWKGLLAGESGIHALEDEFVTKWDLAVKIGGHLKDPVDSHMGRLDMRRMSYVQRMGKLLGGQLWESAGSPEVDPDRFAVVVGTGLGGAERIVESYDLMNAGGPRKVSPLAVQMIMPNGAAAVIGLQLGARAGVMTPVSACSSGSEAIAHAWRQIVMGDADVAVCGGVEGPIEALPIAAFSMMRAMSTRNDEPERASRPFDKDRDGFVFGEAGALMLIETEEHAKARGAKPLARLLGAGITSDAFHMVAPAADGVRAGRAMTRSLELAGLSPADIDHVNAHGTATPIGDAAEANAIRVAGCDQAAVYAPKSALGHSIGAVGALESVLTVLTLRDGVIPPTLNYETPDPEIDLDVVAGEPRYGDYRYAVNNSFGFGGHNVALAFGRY

| SMILES | pIC50 [1] | pIC50 (wild-type apo-KasA) | MIC [2] [µM] | pIC50 [3] | MIC (Escherichia coli) [µM] | pIC50 [4] | pIC50 [5] |
| --- | --- | --- | --- | --- | --- | --- | --- |
| CCCCCCCCCCC(C)C1(C)SC(O)=C(C)C1=O (stereo unspecified) | < 3.00 | < 3.00 | 500 (≈ 156 µg/mL) | < 3.00 | 35 (≈ 10.9 µg/mL) | 4.00 | 4.19 |
| CC1=C(O)C(C)(Cc2cccc(C(F)(F)F)c2)SC1=O (stereo unspecified) | < 3.00 | < 3.00 | 1000 (≈ 302 µg/mL) | < 3.00 | > 1000 | < 3.00 | < 3.00 |
| CC1=C(O)C(C)(Cc2ccc(F)cc2)SC1=O (stereo unspecified) | < 3.00 | < 3.00 | > 1000 | < 3.00 | > 1000 | < 3.00 | < 4.00 |
| CC1=C(O)C(C)(CC2CCC2)SC1=O (stereo unspecified) | < 3.00 | < 3.00 | 1000 (≈ 212 µg/mL) | < 3.00 | > 1000 | < 3.00 | < 3.00 |
| CC1=C(O)C(C)(Cc2ccc(Cl)cc2)SC1=O (stereo unspecified) | < 3.00 | < 3.00 | 1000 (≈ 269 µg/mL) | < 3.00 | > 1000 | < 3.00 | < 4.00 |
| CCCCCCCCCCCCCCCCC1(C)SC(O)=C(C)C1=O (stereo unspecified) |  |  | > 1000 |  |  |  |  |
| CC1=C(O)C(C)(CC2CCCCC2)SC1=O (stereo unspecified) | < 3.00 | < 3.00 | > 1000 | < 3.00 | > 1000 | < 3.00 | < 3.00 |
| CC1=C(O)C(C)(Cc2cc(C)ccc2C)SC1=O (stereo unspecified) | < 3.00 | < 3.00 | > 1000 | < 3.00 | > 1000 | < 3.00 | < 3.00 |
| COc1cc(CC2(C)SC(O)=C(C)C2=O)cc(OC)c1 (stereo unspecified) | < 3.00 | < 3.00 | > 1000 | < 3.00 | > 1000 | < 3.00 | < 3.00 |
| CCCCCCCCCC1(C)SC(O)=C(C)C1=O (stereo unspecified) | < 3.00 | < 3.00 | 500 (≈ 135 µg/mL) | < 3.00 | 100 (≈ 27 µg/mL) | < 4.00 | < 4.00 |
| CCCCCCCCCCCCCCCC1(C)SC(O)=C(C)C1=O (stereo unspecified) |  |  | 500 (≈ 177 µg/mL) |  |  |  |  |
| CCCCCCCCC(C)C1(C)SC(O)=C(C)C1=O (stereo unspecified) | < 3.00 | < 3.00 | 1000 (≈ 284 µg/mL) | < 3.00 | 35 (≈ 9.96 µg/mL) | < 3.00 | 4.12 |
| CC1=C(O)C(C)(Cc2ccccc2Cl)SC1=O (stereo unspecified) | < 3.00 | < 3.00 | 1000 (≈ 269 µg/mL) | < 3.00 | > 1000 | < 3.00 | < 3.00 |
| COc1ccccc1CC1(C)SC(O)=C(C)C1=O (stereo unspecified) | < 3.00 | < 3.00 | > 1000 | < 3.00 | > 1000 | < 3.00 | < 4.00 |
| CC1=C(O)C(C)(Cc2c(C)cc(C)cc2C)SC1=O (stereo unspecified) | < 3.00 | < 3.00 | 1000 (≈ 276 µg/mL) | < 3.00 | > 1000 | < 3.00 | < 3.00 |
| CCCCC(CC)CC1(C)SC(O)=C(C)C1=O (stereo unspecified) | < 3.00 | < 3.00 | 1000 (≈ 256 µg/mL) | < 3.00 | > 1000 | < 3.00 | < 3.00 |
| CC1=C(O)C(C)(Cc2ccc3ccccc3c2)SC1=O (stereo unspecified) | < 3.00 | < 3.00 | 500 (≈ 142 µg/mL) | < 3.00 | > 1000 | < 3.00 | < 4.00 |
| CC1=C(O)C(C)(CCCc2ccccc2)SC1=O (stereo unspecified) | < 3.00 | < 3.00 | 1000 (≈ 262 µg/mL) | < 3.00 | > 1000 | < 3.00 | < 3.00 |
| C=CCCC1(C)SC(=O)C(C)=C1O (stereo unspecified) | < 3.00 | < 3.00 | > 1000 | < 3.00 | > 1000 | < 3.00 | < 3.00 |
